Data taken from US12295936B2, “Immunomodulating urea azalides” (Zoetis Services LLC, priority 2020, dated 2025).

Tested on: BRD pathogens, M. haemolytica and P. multocida
Test: MIC screening panel of BRD pathogens (antibacterial / non-antibacterial)
Settings: for MIC: read-out: antibacterial / non-antibacterial (MIC for the BRD pathogens)

## CC[C@H]1OC(=O)[C@H](C)[C@@H](O)[C@H](C)[C@@H](O[C@@H]2O[C@H](C)C[C@H](N(C)C(=O)Nc3cccc(C)c3)[C@H]2O)[C@](C)(O)C[C@@H](C)CN[C@H](C)[C@@H](O)[C@]1(C)O [Example A-25, 1-((2S,3R,4S,6R)-2-(((2R,3S,4R,5R,8R,10R,11R,12S,13S,14R)-2-ethyl-3,4,10,13-tetrahydroxy-3,5,8,10,12,14-hexamethyl-15-oxo-1-oxa-6-azacyclopentadecan-11-yl)oxy)-3-hydroxy-6-methyltetrahydro-2H-pyran-4-yl)-1-methyl-3-(m-tolyl)urea]
  MIC: > 64 µg/mL

## CCCNC[C@]1(O)[C@H](C)O[C@@H](O[C@H]2[C@H](C)[C@@H](O[C@@H]3O[C@H](C)C[C@H](N(C)C(=O)Nc4cccc(OC)c4)[C@H]3O)[C@](C)(O)C[C@@H](C)CN[C@H](C)[C@@H](O)[C@](C)(O)[C@@H](CC)OC(=O)[C@@H]2C)C[C@@]1(C)OC [Example H-86, 1-((2S,3R,4S,6R)-2-(((2R,3S,4R,5R,8R,10R,11R,12S,13S,14R)-2-ethyl-3,4,10-trihydroxy-13-(((2R,4R,5S,6S)-5-hydroxy-4-methoxy-4,6-dimethyl-5-((propylamino)methyl)tetrahydro-2H-pyran-2-yl)oxy)-3,5,8,10,12,14-hexamethyl-15-oxo-1-oxa-6-azacyclopentadecan-11-yl)oxy)-3-hydroxy-6-methyltetrahydro-2H-pyran-4-yl)-3-(3-methoxyphenyl)-1-methylurea]
  MIC: > 64 µg/mL

## CC[C@H]1OC(=O)[C@H](C)[C@@H](O[C@H]2C[C@@](C)(OC)[C@](O)(CNC)[C@H](C)O2)[C@H](C)[C@@H](O[C@@H]2O[C@H](C)C[C@H](N(C)C(=O)N3CCN(CC)CC3)[C@H]2O)[C@](C)(O)C[C@@H](C)CN[C@H](C)[C@@H](O)[C@]1(C)O [Example I-1, 4-ethyl-N-((2S,3R,4S,6R)-2-(((2R,3S,4R,5R,8R,10R,11R,12S,13S,14R)-2-ethyl-3,4,10-trihydroxy-13-(((2R,4R,5S,6S)-5-hydroxy-4-methoxy-4,6-dimethyl-5-((methylamino)methyl)tetrahydro-2H-pyran-2-yl)oxy)-3,5,8,10,12,14-hexamethyl-15-oxo-1-oxa-6-azacyclopentadecan-11-yl)oxy)-3-hydroxy-6-methyltetrahydro-2H-pyran-4-yl)-N-methylpiperazine-1-carboxamide]
  MIC: > 64 µg/mL

## CCCN1C[C@H](C)C[C@@](C)(O)[C@H](O[C@@H]2O[C@H](C)C[C@H](N(C)C(=O)N(C)c3ccc(C(F)(F)F)cc3)[C@H]2O)[C@@H](C)[C@H](O[C@H]2C[C@@](C)(OC)[C@@H](O)[C@H](C)O2)[C@@H](C)C(=O)O[C@H](CC)[C@@](C)(O)[C@H](O)[C@H]1C [Example B-14, 1-((2S,3R,4S,6R)-2-(((2R,3S,4R,5R,8R,10R,11R,12S,13S,14R)-2-ethyl-3,4,10-trihydroxy-13-(((2R,4R,5S,6S)-5-hydroxy-4-methoxy-4,6-dimethyltetrahydro-2H-pyran-2-yl)oxy)-3,5,8,10,12,14-hexamethyl-15-oxo-6-propyl-1-oxa-6-azacyclopentadecan-11-yl)oxy)-3-hydroxy-6-methyltetrahydro-2H-pyran-4-yl)-1,3-dimethyl-3-(4-(trifluoromethyl)phenyl)urea]
  MIC: > 64 µg/mL

## CC[C@H]1OC(=O)[C@H](C)[C@@H](O)[C@H](C)[C@@H](O[C@@H]2O[C@H](C)C[C@H](N(C)C(=O)Nc3cccc(F)c3)[C@H]2O)[C@](C)(O)C[C@@H](C)CN[C@H](C)[C@@H](O)[C@]1(C)O [Example A-20, 1-((2S,3R,4S,6R)-2-(((2R,3S,4R,5R,8R,10R,11R,12S,13S,14R)-2-ethyl-3,4,10,13-tetrahydroxy-3,5,8,10,12,14-hexamethyl-15-oxo-1-oxa-6-azacyclopentadecan-11-yl)oxy)-3-hydroxy-6-methyltetrahydro-2H-pyran-4-yl)-3-(3-fluorophenyl)-1-methylurea]
  MIC: > 64 µg/mL

## CCCN1C[C@H](C)C[C@@](C)(O)[C@H](O[C@@H]2O[C@H](C)C[C@H](N(C)C(=O)N(C)c3ccccc3)[C@H]2O)[C@@H](C)[C@H](O[C@H]2C[C@@](C)(OC)[C@@H](O)[C@H](C)O2)[C@@H](C)C(=O)O[C@H](CC)[C@@](C)(O)[C@H](O)[C@H]1C [Example B-15, 1-((2S,3R,4S,6R)-2-(((2R,3S,4R,5R,8R,10R,11R,12S,13S,14R)-2-ethyl-3,4,10-trihydroxy-13-(((2R,4R,5S,6S)-5-hydroxy-4-methoxy-4,6-dimethyltetrahydro-2H-pyran-2-yl)oxy)-3,5,8,10,12,14-hexamethyl-15-oxo-6-propyl-1-oxa-6-azacyclopentadecan-11-yl)oxy)-3-hydroxy-6-methyltetrahydro-2H-pyran-4-yl)-1,3-dimethyl-3-phenylurea]
  MIC: > 64 µg/mL

## CC[C@H]1OC(=O)[C@H](C)[C@@H](O[C@H]2C[C@@](C)(OC)[C@](O)(CNCCS(C)(=O)=O)[C@H](C)O2)[C@H](C)[C@@H](O[C@@H]2O[C@H](C)C[C@H](N(C)C(=O)N(C)c3ccccc3)[C@H]2O)[C@](C)(O)C[C@@H](C)CN[C@H](C)[C@@H](O)[C@]1(C)O [Example H-21, 1-((2S,3R,4S,6R)-2-(((2R,3S,4R,5R,8R,10R,11R,12S,13S,14R)-2-ethyl-3,4,10-trihydroxy-13-(((2R,4R,5S,6S)-5-hydroxy-4-methoxy-4,6-dimethyl-5-(((2-(methylsulfonyl)ethyl)amino)methyl)tetrahydro-2H-pyran-2-yl)oxy)-3,5,8,10,12,14-hexamethyl-15-oxo-1-oxa-6-azacyclopentadecan-11-yl)oxy)-3-hydroxy-6-methyltetrahydro-2H-pyran-4-yl)-1,3-dimethyl-3-phenylurea]
  MIC: > 64 µg/mL

## CCCNC[C@]1(O)[C@H](C)O[C@@H](O[C@H]2[C@H](C)[C@@H](O[C@@H]3O[C@H](C)C[C@H](N(C)C(=O)N(C)c4ccc(O)cc4)[C@H]3O)[C@](C)(O)C[C@@H](C)CN[C@H](C)[C@@H](O)[C@](C)(O)[C@@H](CC)OC(=O)[C@@H]2C)C[C@@]1(C)OC [Example H-99, 1-((2S,3R,4S,6R)-2-(((2R,3S,4R,5R,8R,10R,11R,12S,13S,14R)-2-ethyl-3,4,10-trihydroxy-13-(((2R,4R,5S,6S)-5-hydroxy-4-methoxy-4,6-dimethyl-5-((propylamino)methyl)tetrahydro-2H-pyran-2-yl)oxy)-3,5,8,10,12,14-hexamethyl-15-oxo-1-oxa-6-azacyclopentadecan-11-yl)oxy)-3-hydroxy-6-methyltetrahydro-2H-pyran-4-yl)-3-(4-hydroxyphenyl)-1,3-dimethylurea]
  MIC: > 64 µg/mL

## CC[C@H]1OC(=O)[C@H](C)[C@@H](O)[C@H](C)[C@@H](O[C@@H]2O[C@H](C)C[C@H](N(C)C(=O)Nc3ccc(Cl)cc3)[C@H]2O)[C@](C)(O)C[C@@H](C)CN[C@H](C)[C@@H](O)[C@]1(C)O [Example A-19, 3-(4-chlorophenyl)-1-((2S,3R,4S,6R)-2-(((2R,3S,4R,5R,8R,10R,11R,12S,13S,14R)-2-ethyl-3,4,10,13-tetrahydroxy-3,5,8,10,12,14-hexamethyl-15-oxo-1-oxa-6-azacyclopentadecan-11-yl)oxy)-3-hydroxy-6-methyltetrahydro-2H-pyran-4-yl)-1-methylurea]
  MIC: > 64 µg/mL

## CCCNC[C@]1(O)[C@H](C)O[C@@H](O[C@H]2[C@H](C)[C@@H](O[C@@H]3O[C@H](C)C[C@H](N(C)C(=O)NC)[C@H]3O)[C@](C)(O)C[C@@H](C)CN[C@H](C)[C@@H](O)[C@](C)(O)[C@@H](CC)OC(=O)[C@@H]2C)C[C@@]1(C)OC [Example H-92, 1-((2S,3R,4S,6R)-2-(((2R,3S,4R,5R,8R,10R,11R,12S,13S,14R)-2-ethyl-3,4,10-trihydroxy-13-(((2R,4R,5S,6S)-5-hydroxy-4-methoxy-4,6-dimethyl-5-((propylamino)methyl)tetrahydro-2H-pyran-2-yl)oxy)-3,5,8,10,12,14-hexamethyl-15-oxo-1-oxa-6-azacyclopentadecan-11-yl)oxy)-3-hydroxy-6-methyltetrahydro-2H-pyran-4-yl)-1,3-dimethylurea]
  MIC: > 64 µg/mL

## CCCNC[C@]1(O)[C@H](C)O[C@@H](O[C@H]2[C@H](C)[C@@H](O[C@@H]3O[C@H](C)C[C@H](N(C)C(=O)NCCN4CCCCC4)[C@H]3O)[C@](C)(O)C[C@@H](C)CN[C@H](C)[C@@H](O)[C@](C)(O)[C@@H](CC)OC(=O)[C@@H]2C)C[C@@]1(C)OC [Example H-98, 1-((2S,3R,4S,6R)-2-(((2R,3S,4R,5R,8R,10R,11R,12S,13S,14R)-2-ethyl-3,4,10-trihydroxy-13-(((2R,4R,5S,6S)-5-hydroxy-4-methoxy-4,6-dimethyl-5-((propylamino)methyl)tetrahydro-2H-pyran-2-yl)oxy)-3,5,8,10,12,14-hexamethyl-15-oxo-1-oxa-6-azacyclopentadecan-11-yl)oxy)-3-hydroxy-6-methyltetrahydro-2H-pyran-4-yl)-1-methyl-3-(2-(piperidin-1-yl)ethyl)urea]
Table H, Formula (1-A1) compounds
  MIC ≤64 μg/mL for at least one BRD bacterial strain (flag * at Ex #): H-98* (*MIC ≤64 μg/mL for at least one BRD bacterial strain)

## CCCNC(=O)N(C)[C@H]1C[C@@H](C)O[C@@H](O[C@@H]2[C@@H](C)[C@H](O[C@H]3C[C@@](C)(OC)[C@](O)(CNC4CCC4)[C@H](C)O3)[C@@H](C)C(=O)O[C@H](CC)[C@@](C)(O)[C@H](O)[C@@H](C)NC[C@H](C)C[C@@]2(C)O)[C@@H]1O [Example H-94, 1-((2S,3R,4S,6R)-2-(((2R,3S,4R,5R,8R,10R,11R,12S,13S,14R)-13-(((2R,4R,5S,6S)-5-((cyclobutylamino)methyl)-5-hydroxy-4-methoxy-4,6-dimethyltetrahydro-2H-pyran-2-yl)oxy)-2-ethyl-3,4,10-trihydroxy-3,5,8,10,12,14-hexamethyl-15-oxo-1-oxa-6-azacyclopentadecan-11-yl)oxy)-3-hydroxy-6-methyltetrahydro-2H-pyran-4-yl)-1-methyl-3-propylurea]
  MIC: > 64 µg/mL
